Experimental data as given in patent US10738028B2, “Spiro three-membered ring, spiro five-membered ring peptide deformylase inhibitor and use thereof in antibacteria and anti-tumor” (priority 2016, dated 2020).
Converted amounts (≈) assume the structure as drawn.

Tests used:
Type in all cases: cell-based
[1] = test system: methicillin-resistant Staphylococcus epidermidis (MRSE); assay: MIC, two-fold agar dilution (CLSI), clinical isolates
Excerpt: (§1) 1. The invention adopts the two-fold agar dilution method recommended by the operating procedure of antimicrobial susceptibility testing set by American Clinical and Laboratory Standards Institute (CLSI) to determine the Minimum Inhibitory Concentration (MIC) of the test samples against the tested strains.

[2] = test system: Enterococcus faecium (EFM); assay: as above
Excerpt: as §1

[3] = test system: methicillin-sensitive Staphylococcus epidermidis (MSSE); assay: as above
Excerpt: as §1

[4] = test system: Enterococcus faecalis (EFA); assay: as above
Excerpt: as §1

[5] = test system: Moraxella catarrhalis (BCA); assay: as above
Excerpt: as §1

[6] = test system: methicillin-sensitive Staphylococcus aureus (MSSA); assay: as above
Excerpt: as §1

[7] = test system: methicillin-resistant Staphylococcus aureus (MRSA); assay: as above
Excerpt: as §1

[8] = test system: Escherichia coli (including ESBLs, non-ESBLs); assay: as above
Excerpt: as §1

[9] = test system: Streptococcus pneoumoniae (SPN); assay: as above
Excerpt: as §1

[10] = test system: HCT-116 colorectal cancer cell line; assay: CCK-8 proliferation inhibition; settings: Homo sapiens, HCT-116, 72 h, concentration of 30 μM; 72 hours; CCK-8; read-out: HCT116 inhibition rate/%
Experimental: (1) HCT-116 colorectal cancer cell line, A549 lung cancer cell line, MGC-803 gastric cancer cell line, BEL-7402 liver cancer cell line, Jurkat T cell leukemia cell line, HL60 acute myeloid leukemia cell line, Hela cervical cancer cell line, MCF-7 breast cancer cell line, PC3 prostate cancer cell line and SAOS-2 osteosarcoma cell line were made into single cell suspension, 180 μL of which was inoculated into 96-well culture plate, which was cultured overnight in CO2 incubator (37° C., 5% CO2, 95% air).
(2) Each of the spiro three-membered ring, spiro five membered ring peptide deformylase inhibitors was dissolved in DMSO, and was further formulated into drug solution with required different final concentration using corresponding cell culture medium. The drug solutions were added to the above cells respectively (20 μL/well), with the control group added with 1‰ DMSO, and cultured in a CO2 incubator for 72 hours.
(3) After incubation for 72 hours, the culture solution was decanted, and 100 μL of 1:10 diluted CCK-8 solution was added.
Wherein, in step (1), the concentration of the single cell suspension was 2000 cells/well.
Wherein, in step (2), HCT-116 cells were cultured in McCoy's 5A medium (containing 10% newborn bovine serum, 1% double antibody); A549 and PC3 cells were cultured in F12 medium (containing 10% newborn bovine serum, 1% double antibody); MGC-803, BEL-7402, SAOS-2, Jurkat and HL60 cells were cultured in 1640 medium (containing 10% newborn bovine serum, 1% double antibody); and MCF-7 and Hela cells were cultured in DMEM high glucose medium (containing 10% newborn bovine serum, 1% double antibody).

In the case of `CCCC[C@H](CN(O)C=O)C(=O)N1CC2(CC2)C[C@H]1C(=O)Nc1cnccn1` [Example 15], the MIC (anti-bacterial activity) ([1]; strain MRSE 15-1) is reported as 0.125 µg/mL (≈ 0.321 µM), the MIC (anti-bacterial activity) ([1]; strain MRSE 15-2) is reported as 0.25 µg/mL (≈ 0.642 µM) and the MIC (anti-bacterial activity) ([1]; strain MRSE 15-3) is reported as 0.25 µg/mL (≈ 0.642 µM). The MIC (anti-bacterial activity) ([1]; strain MRSE 15-7) was 0.25 µg/mL (≈ 0.642 µM), the MIC (anti-bacterial activity) ([2]; strain EFM 15-1) was 1 µg/mL (≈ 2.57 µM) and the MIC (anti-bacterial activity) ([2]; strain EFM 15-2) was 1 µg/mL (≈ 2.57 µM). The MIC (anti-bacterial activity) ([2]; strain EFM 15-3) was 0.125 µg/mL (≈ 0.321 µM), the MIC (anti-bacterial activity) ([2]; strain EFM 15-4) was 1 µg/mL (≈ 2.57 µM) and the MIC (anti-bacterial activity) ([2]; strain EFM 15-5) was 0.125 µg/mL (≈ 0.321 µM). The MIC (anti-bacterial activity) ([2]; strain EFM 15-6) was 1 µg/mL (≈ 2.57 µM), the MIC (anti-bacterial activity) ([3]; strain MSSE 15-3) was 0.25 µg/mL (≈ 0.642 µM) and the MIC (anti-bacterial activity) ([3]; strain MSSE 15-4) was 0.06 µg/mL (≈ 0.154 µM). For the same molecule, the MIC (anti-bacterial activity) ([3]; strain MSSE 15-5) was 0.06 µg/mL (≈ 0.154 µM), the MIC (anti-bacterial activity) ([3]; strain MSSE 15-6) was 0.06 µg/mL (≈ 0.154 µM) and the MIC (anti-bacterial activity) ([4]; strain EFA 15-1) was 1 µg/mL (≈ 2.57 µM). The MIC (anti-bacterial activity) ([4]; strain EFA 15-2) was 1 µg/mL (≈ 2.57 µM), the MIC (anti-bacterial activity) ([4]; strain EFA 15-3) was 1 µg/mL (≈ 2.57 µM) and the MIC (anti-bacterial activity) ([4]; strain EFA 15-4) was 1 µg/mL (≈ 2.57 µM). It also gave an MIC (anti-bacterial activity) ([4]; strain EFA 15-5) of 4 µg/mL (≈ 10.3 µM), an MIC (anti-bacterial activity) ([4]; strain EFA 15-6) of 4 µg/mL (≈ 10.3 µM) and an MIC (anti-bacterial activity) ([4]; strain EFA 15-9) of 1 µg/mL (≈ 2.57 µM). For the same molecule, the MIC (anti-bacterial activity) ([5]; strain BCA 14-1) was 0.5 µg/mL (≈ 1.28 µM), the MIC (anti-bacterial activity) ([5]; strain BCA 14-4) was 0.5 µg/mL (≈ 1.28 µM) and the MIC (anti-bacterial activity) ([5]; strain BCA 14-5) was 0.125 µg/mL (≈ 0.321 µM). The MIC (anti-bacterial activity) ([5]; strain BCA 14-6) was 1 µg/mL (≈ 2.57 µM), the MIC (anti-bacterial activity) ([5]; strain BCA 14-7) was 0.125 µg/mL (≈ 0.321 µM) and the MIC (anti-bacterial activity) ([5]; strain BCA 14-8) was 0.5 µg/mL (≈ 1.28 µM). For the same molecule, the MIC (anti-bacterial activity) ([5]; strain BCA 14-10) was 0.125 µg/mL (≈ 0.321 µM), the MIC (anti-bacterial activity) ([6]; strain MSSA 15-3) was 0.25 µg/mL (≈ 0.642 µM) and the MIC (anti-bacterial activity) ([6]; strain MSSA 15-4) was 0.125 µg/mL (≈ 0.321 µM). The MIC (anti-bacterial activity) ([6]; strain MSSA 15-5) was 0.125 µg/mL (≈ 0.321 µM), the MIC (anti-bacterial activity) ([6]; strain MSSA 15-6) was 0.125 µg/mL (≈ 0.321 µM) and the MIC (anti-bacterial activity) ([7]; strain MRSA 15-1) was 0.125 µg/mL (≈ 0.321 µM). It also gave an MIC (anti-bacterial activity) ([7]; strain MRSA 15-2) of 0.25 µg/mL (≈ 0.642 µM), an MIC (anti-bacterial activity) ([7]; strain MRSA 15-3) of 0.125 µg/mL (≈ 0.321 µM) and an MIC (anti-bacterial activity) ([7]; strain MRSA 15-4) of 0.25 µg/mL (≈ 0.642 µM). It also gave an MIC (anti-bacterial activity) ([8]; strain ECO+ 15-1) of 32 µg/mL (≈ 82.2 µM), an MIC (anti-bacterial activity) ([8]; strain ECO+ 15-2) of 64 µg/mL (≈ 164 µM) and an MIC (anti-bacterial activity) ([8]; strain ECO+ 15-3) of 32 µg/mL (≈ 82.2 µM). For the same molecule, the MIC (anti-bacterial activity) ([8]; strain ECO+ 15-4) was 32 µg/mL (≈ 82.2 µM), the MIC (anti-bacterial activity) ([8]; strain ECO− 15-1) was 32 µg/mL (≈ 82.2 µM) and the MIC (anti-bacterial activity) ([8]; strain ECO− 15-2) was 64 µg/mL (≈ 164 µM). It also gave an MIC (anti-bacterial activity) ([8]; strain ECO− 15-3) of 64 µg/mL (≈ 164 µM), an MIC (anti-bacterial activity) ([8]; strain ECO− 15-4) of 64 µg/mL (≈ 164 µM) and an MIC (anti-bacterial activity) ([9]; strain SPN 16-2) of 0.015 µg/mL (≈ 0.0385 µM). It also gave an MIC (anti-bacterial activity) ([9]; strain SPN 16-4) of 0.5 µg/mL (≈ 1.28 µM) and an inhibition at 30 µM [10] of 24%.
Work on `CCCC[C@H](CN(O)C=O)C(=O)N1CC2(CC2)C[C@H]1C(=O)Nc1ccncn1` [Example 16, (S)-5-((R)-2-((N-hydroxyformamido)methyl)hexanoyl)-N-(pyrimidin-4-yl)-5-spiro[2.4]heptane-6-carboxamide] yielded an MIC (anti-bacterial activity) ([1]; strain MRSE 15-1) of 0.06 µg/mL (≈ 0.154 µM), an MIC (anti-bacterial activity) ([1]; strain MRSE 15-2) of 1 µg/mL (≈ 2.57 µM) and an MIC (anti-bacterial activity) ([1]; strain MRSE 15-3) of 0.25 µg/mL (≈ 0.642 µM). For the same molecule, the MIC (anti-bacterial activity) ([1]; strain MRSE 15-7) was 0.25 µg/mL (≈ 0.642 µM), the MIC (anti-bacterial activity) ([2]; strain EFM 15-1) was 0.5 µg/mL (≈ 1.28 µM) and the MIC (anti-bacterial activity) ([2]; strain EFM 15-2) was 1 µg/mL (≈ 2.57 µM). The MIC (anti-bacterial activity) ([2]; strain EFM 15-3) was 0.25 µg/mL (≈ 0.642 µM), the MIC (anti-bacterial activity) ([2]; strain EFM 15-4) was 2 µg/mL (≈ 5.14 µM) and the MIC (anti-bacterial activity) ([2]; strain EFM 15-5) was 0.25 µg/mL (≈ 0.642 µM). It also gave an MIC (anti-bacterial activity) ([2]; strain EFM 15-6) of 2 µg/mL (≈ 5.14 µM), an MIC (anti-bacterial activity) ([3]; strain MSSE 15-3) of 1 µg/mL (≈ 2.57 µM) and an MIC (anti-bacterial activity) ([3]; strain MSSE 15-4) of 0.06 µg/mL (≈ 0.154 µM). It also gave an MIC (anti-bacterial activity) ([3]; strain MSSE 15-5) of 0.06 µg/mL (≈ 0.154 µM), an MIC (anti-bacterial activity) ([3]; strain MSSE 15-6) of 0.06 µg/mL (≈ 0.154 µM) and an MIC (anti-bacterial activity) ([4]; strain EFA 15-1) of 4 µg/mL (≈ 10.3 µM). For the same molecule, the MIC (anti-bacterial activity) ([4]; strain EFA 15-2) was 4 µg/mL (≈ 10.3 µM), the MIC (anti-bacterial activity) ([4]; strain EFA 15-3) was 0.25 µg/mL (≈ 0.642 µM) and the MIC (anti-bacterial activity) ([4]; strain EFA 15-4) was 4 µg/mL (≈ 10.3 µM). For the same molecule, the MIC (anti-bacterial activity) ([4]; strain EFA 15-5) was 4 µg/mL (≈ 10.3 µM), the MIC (anti-bacterial activity) ([4]; strain EFA 15-6) was 4 µg/mL (≈ 10.3 µM) and the MIC (anti-bacterial activity) ([4]; strain EFA 15-9) was 4 µg/mL (≈ 10.3 µM). The MIC (anti-bacterial activity) ([5]; strain BCA 14-1) was 0.5 µg/mL (≈ 1.28 µM), the MIC (anti-bacterial activity) ([5]; strain BCA 14-4) was 1 µg/mL (≈ 2.57 µM) and the MIC (anti-bacterial activity) ([5]; strain BCA 14-5) was 0.25 µg/mL (≈ 0.642 µM). For the same molecule, the MIC (anti-bacterial activity) ([5]; strain BCA 14-6) was 1 µg/mL (≈ 2.57 µM), the MIC (anti-bacterial activity) ([5]; strain BCA 14-7) was 0.25 µg/mL (≈ 0.642 µM) and the MIC (anti-bacterial activity) ([5]; strain BCA 14-8) was 0.25 µg/mL (≈ 0.642 µM). The MIC (anti-bacterial activity) ([5]; strain BCA 14-10) was 0.25 µg/mL (≈ 0.642 µM), the MIC (anti-bacterial activity) ([6]; strain MSSA 15-3) was 1 µg/mL (≈ 2.57 µM) and the MIC (anti-bacterial activity) ([6]; strain MSSA 15-4) was 0.25 µg/mL (≈ 0.642 µM). It also gave an MIC (anti-bacterial activity) ([6]; strain MSSA 15-5) of 0.125 µg/mL (≈ 0.321 µM), an MIC (anti-bacterial activity) ([6]; strain MSSA 15-6) of 1 µg/mL (≈ 2.57 µM) and an MIC (anti-bacterial activity) ([7]; strain MRSA 15-1) of 0.06 µg/mL (≈ 0.154 µM). It also gave an MIC (anti-bacterial activity) ([7]; strain MRSA 15-2) of 0.25 µg/mL (≈ 0.642 µM), an MIC (anti-bacterial activity) ([7]; strain MRSA 15-3) of 0.25 µg/mL (≈ 0.642 µM) and an MIC (anti-bacterial activity) ([7]; strain MRSA 15-4) of 1 µg/mL (≈ 2.57 µM). For the same molecule, the MIC (anti-bacterial activity) ([8]; strain ECO+ 15-1) was 32 µg/mL (≈ 82.2 µM), the MIC (anti-bacterial activity) ([8]; strain ECO+ 15-2) was greater than 32 µg/mL and the MIC (anti-bacterial activity) ([8]; strain ECO+ 15-3) was greater than 32 µg/mL. It also gave an MIC (anti-bacterial activity) ([8]; strain ECO+ 15-4) greater than 32 µg/mL, an MIC (anti-bacterial activity) ([8]; strain ECO− 15-1) of 32 µg/mL (≈ 82.2 µM) and an MIC (anti-bacterial activity) ([8]; strain ECO− 15-2) greater than 32 µg/mL. The MIC (anti-bacterial activity) ([8]; strain ECO− 15-3) was greater than 32 µg/mL, the MIC (anti-bacterial activity) ([8]; strain ECO− 15-4) was greater than 32 µg/mL and the MIC (anti-bacterial activity) ([9]; strain SPN 16-2) was 4 µg/mL (≈ 10.3 µM). For the same molecule, the MIC (anti-bacterial activity) ([9]; strain SPN 16-4) was 0.25 µg/mL (≈ 0.642 µM) and the inhibition at 30 µM [10] was 24%.
